# Paper PMC6541551 (Journal of psychopharmacology (Oxford, England), 2018)
# Entries after “also recorded” stand apart in the source; their conditions may differ. Marks after values point to notes of the source that are not given here.
# Assays:
# [1] = Mouse pharmacokinetic studies of; type: in vivo, CD-1 mice
# [2] = Screening of; type: in vivo, CD-1 mice; details: male mice, three timepoints; for Cmax of (2R,6R)-HNK in plasma: 50 mg/kg of the compound
# [3] = tested on: mice; test: Adverse effects screening; type: in vivo, CD-1 mice
# [4] = tested on: mice; test: Forced-swim test; type: in vivo, CD-1 mice; details: vs saline
# [5] = tested on: mice; test: Open-field test; type: in vivo, CD-1 mice; details: vs saline; for Open-field total distance travelled: 15, 50, 150, 450 mg/kg p.o., 60 min after administration
# [6] = Rat pharmacokinetic study of; type: in vivo, Sprague-Dawley rats; details: for AUC/dose: plasma
# [7] = Canine pharmacokinetic study of; details: for AUC0→∞ / t1/2 / Cmax: dog plasma
# [8] = tested on: mice; test: Learned helplessness test; type: in vivo, CD-1 mice; details: vs saline; for Learned helplessness: escape failures in the last 10 trials: p<0.001
# [9] = brain, female mice, i.v., 50 mg/kg
# [10] = brain, female mice, p.o., 50 mg/kg
# [11] = brain, male mice, i.p., 50 mg/kg
# [12] = brain, male mice, i.v., 50 mg/kg
# [13] = male mice, p.o., 50 mg/kg, cohort p.o. vs i.p.
# [14] = male mice, p.o., 10 min, cohort p.o. vs i.v.
# [15] = plasma, female mice, i.v., 50 mg/kg
# [16] = plasma, female mice, p.o., 50 mg/kg
structure (smiles),measurement,setting,value
"N[C@@]1(c2ccccc2Cl)CCC[C@@H](O)C1=O [(2R,6R)-HNK, (2R,6R)-hydroxynorketamine]",AUC0→∞,[1]; [9],9.53 µg·h/g
same,t1/2,[1]; [9],36 min
same,AUC0→∞,[1]; [10],6.96 µg·h/g
same,t1/2,[1]; [10],42 min
same,Cmax,"[1]; brain, female mice, p.o., single 50 mg/kg",11.6 µg/g
same,AUC0→∞,[1]; [11],4.94 µg·h/g
same,t1/2,[1]; [11],24 min
same,Cmax,"[1]; brain, male mice, i.p., single 50 mg/kg",12.7 µg/g
same,AUC0→∞,[1]; [12],8.38 µg·h/g
same,t1/2,[1]; [12],30 min
same,t1/2,"[1]; brain, male mice, p.o., 50 mg/kg",42 min
same,AUC0→∞,"[1]; brain, male mice, p.o., 50 mg/kg, range of two cohorts",2.85−5.19 μg/g×h
same,Cmax,"[1]; brain, male mice, p.o., single 50 mg/kg, range of two cohorts",6.49−8.60 μg/g
same,Absolute BA (plasma AUC0→∞ p.o. / i.v.),"[1]; female mice, 50 mg/kg",52%
same,maximal levels p.o. lower than i.v.,"[1]; female mice, 50 mg/kg, plasma",1.7 ×
same,Cl,"[1]; female mice, i.v.",51 mL/min/kg
same,Vss,"[1]; female mice, i.v.",0.80 L/kg
same,Brain to plasma ratio,"[1]; female mice, i.v., 50 mg/kg",0.67
same,AUC/dose,"[1]; female mice, i.v., plasma",0.330 µg·kg·h/mL/mg
same,Brain to plasma ratio,"[1]; female mice, p.o., 50 mg/kg",0.95
same,AUC/dose,"[1]; female mice, p.o., plasma",0.170 µg·kg·h/mL/mg
same,Absolute BA (plasma AUC0→∞ p.o. / i.v.),"[1]; male mice, 50 mg/kg",46%
same,maximal brain concentration p.o. as % of i.p.,"[1]; male mice, 50 mg/kg",51%
same,maximal plasma concentration p.o. as % of i.p.,"[1]; male mice, 50 mg/kg",44.1%
same,Relative BA (plasma AUC0→∞ p.o. / i.p.),"[1]; male mice, 50 mg/kg, five timepoints",62%
same,highest concentrations p.o. lower than i.p. and i.v.,"[1]; male mice, 50 mg/kg, plasma and brain",2–3 fold
same,brain concentration p.o. as % of i.v.,"[1]; male mice, 10 min after dosing, 50 mg/kg",42%
same,Brain to plasma ratio,"[1]; male mice, i.p., 50 mg/kg",0.96
same,Cl,"[1]; male mice, i.v.",74 mL/min/kg
same,Vss,"[1]; male mice, i.v.",1.7 L/kg
same,Brain to plasma ratio,"[1]; male mice, i.v., 50 mg/kg",0.86
same,AUC/dose,"[1]; male mice, i.v., plasma, normalized to free drug dose",0.226 µg·kg·h/mL/mg
same,maximal brain concentration,[1]; [13],6.49 µg/g
same,maximal plasma concentration,[1]; [13],5.90 µg/mL
same,Brain to plasma ratio,"[1]; male mice, p.o., 50 mg/kg, range of two cohorts",0.90−1.16
same,brain concentration at earliest timepoint,[1]; [14],8.60 µg/g
same,plasma concentration at earliest timepoint,[1]; [14],5640 ng/mL
same,Brain to plasma exposure ratio (brain penetrance),"[1]; male mice, p.o., cohort p.o. vs i.p.",0.90
same,Brain penetrance (brain to plasma ratio),"[1]; male mice, p.o., cohort p.o. vs i.v.",1.16
same,AUC/dose,"[1]; male mice, p.o., plasma, normalized to free drug dose",0.104 µg·kg·h/mL/mg
same,Brain to plasma ratio,"[1]; mice and rats, following oral administration (abstract)",0.67–1.2
same,Brain to plasma ratio,"[1]; mice, both sexes and all routes of administration",0.67–1.2
same,clearance,"[1]; mice, i.v., range of sexes",51 to 74 mL/min/kg
same,dose-normalized plasma exposure (AUC/dose),"[1]; mice, i.v., range of sexes",0.226 to 0.330 µg·kg·h/mL/mg
same,highest plasma concentrations in females higher than in males,"[1]; mice, p.o. and i.v., 50 mg/kg",1.5–2.6 ×
same,dose-normalized plasma exposure (AUC/dose),"[1]; mice, p.o., range of sexes",0.104 to 0.170 µg·kg·h/mL/mg
same,Tmax,"[1]; mice, plasma and brain, all routes (i.p., p.o., i.v.), 50 mg/kg",10 min
same,half-life (t1/2),"[1]; mice, plasma, range over routes and sexes",12 to 48 min
same,absolute oral BA,"[1]; mice, range of males and females",46–52%
same,AUC0→∞,[1]; [15],14.2 µg·h/mL
same,t1/2,[1]; [15],12 min
same,AUC0→∞,[1]; [16],7.33 µg·h/mL
same,t1/2,[1]; [16],18 min
same,Cmax,"[1]; plasma, female mice, p.o., single 50 mg/kg",14.7 µg/mL
same,t1/2,"[1]; plasma, male mice, i.p., 50 mg/kg",30 min
same,AUC0→∞,"[1]; plasma, male mice, i.p., single 50 mg/kg",5.12 µg·h/mL
same,Cmax,"[1]; plasma, male mice, i.p., single 50 mg/kg (43.1 mg/kg free base), five timepoints",13.4 µg/mL
same,t1/2,"[1]; plasma, male mice, i.v., 50 mg/kg",30 min
same,AUC0→∞,"[1]; plasma, male mice, i.v., single 50 mg/kg",9.76 µg·h/mL
same,t1/2,"[1]; plasma, male mice, p.o., 50 mg/kg",48 min
same,AUC0→∞,"[1]; plasma, male mice, p.o., single 50 mg/kg, range of two cohorts",3.18−4.49 μg/mL×h
same,Relative BA (plasma AUClast p.o. / i.p.),[2]; 50 mg/kg,47%
same,"Cmax of (2R,6R)-HNK in plasma",[2]; i.p.,13400 ng/mL
same,"AUClast of (2R,6R)-HNK in plasma","[2]; i.p., 50 mg/kg",5910 ng·h/mL
same,"Cmax of (2R,6R)-HNK in plasma",[2]; p.o.,5900 ng/mL
same,"AUC (systemic exposure to (2R,6R)-HNK)","[2]; p.o., 50 mg/kg",2.80 µg/mL/h
same,"AUClast of (2R,6R)-HNK in plasma","[2]; p.o., 50 mg/kg",2800 ng·h/mL
same,"Backwards movement, mean score±SEM","[3]; 450 mg/kg p.o., 60 min",0
same,"Ptosis, mean score±SEM","[3]; 450 mg/kg p.o., 60 min",0
same,"Sniffing, mean score±SEM","[3]; 450 mg/kg p.o., 60 min",0
same,"Tail flicking, mean score±SEM","[3]; 450 mg/kg p.o., 60 min",0
same,"Piloerection, mean score±SEM","[3]; 450 mg/kg p.o., observed over 60 min, n=4/group",0.25±0.25
same,Overall adverse effects,[3]; up to a dose of 450 mg/kg p.o.,"minimal, if any, adverse effects"
same,Forced-swim test immobility time,"[4]; 15 mg/kg i.p., 24-hour re-test, p<0.01",reduced immobility time
same,Forced-swim test immobility time,"[4]; 15 mg/kg i.p., one hour after administration, p<0.05",reduced immobility time
same,Forced-swim test immobility time,"[4]; 15-150 mg/kg p.o., 24 h after treatment, p<0.01",reductions in immobility time
same,Forced-swim test immobility time,"[4]; 15-150 mg/kg p.o., one hour after treatment, p<0.05",reductions in immobility time
same,Open-field total distance travelled,[5],did not alter the total distance travelled at any dose tested
same,Open-field total distance travelled,"[5]; listed as (2R,6R)-hydroxynorketamine",did not alter locomotor activity
same,Open-field time spent in the center (central 50%) of the arena,"[5]; 15-450 mg/kg p.o., 60 min",no significant effect; also recorded: did not alter
same,Cl,"[6]; male rats, i.v.",27 mL/min/kg
same,Vss,"[6]; male rats, i.v.",7.5 L/kg
same,AUC/dose,"[6]; male rats, i.v.",0.627 µg·kg·h/mL/mg
same,AUC/dose,"[6]; male rats, p.o.",0.265 µg·kg·h/mL/mg
same,AUC0→∞,"[6]; rat brain, i.v., 10 mg/kg",6090 ng·h/mL
same,t1/2,"[6]; rat brain, i.v., 10 mg/kg",528 min
same,Cmax,"[6]; rat brain, i.v., 10 mg/kg, measured five minutes after dosing, not actual peak",9.13^a μg/mL
same,AUC0→∞,"[6]; rat brain, p.o., 10 mg/kg",2580 ng·h/mL
same,Cmax,"[6]; rat brain, p.o., 10 mg/kg",1.52 µg/mL
same,t1/2,"[6]; rat brain, p.o., 10 mg/kg",342 min
same,AUC0→∞,"[6]; rat plasma, i.v., 10 mg/kg",6270 ng·h/mL
same,t1/2,"[6]; rat plasma, i.v., 10 mg/kg",480 min
same,Cmax,"[6]; rat plasma, i.v., 10 mg/kg, measured five minutes after dosing, not actual peak",9.56^a μg/mL
same,AUC0→∞,"[6]; rat plasma, p.o., 10 mg/kg",2650 ng·h/mL
same,t1/2,"[6]; rat plasma, p.o., 10 mg/kg",414 min
same,Cmax,"[6]; rat plasma, p.o., single 10 mg/kg (free drug dose), eight timepoints",1.50 µg/mL
same,BA (absolute oral),"[6]; rats, 10 mg/kg p.o. vs i.v., plasma AUC0→∞",42%
same,Brain to plasma ratio,"[6]; rats, both i.v. and p.o., 10 mg/kg",0.97
same,time of peak concentration,"[6]; rats, plasma and brain, i.v., 10 mg/kg",0.083 h
same,AUC0→∞,"[7]; i.v., 10 mg/kg",7830 ng·h/mL
same,t1/2,"[7]; i.v., 10 mg/kg",96 min
same,Cmax,"[7]; i.v., 10 mg/kg, measured five minutes after dosing, not actual peak",8.87^a μg/mL
same,AUC0→∞,"[7]; p.o., 10 mg/kg",4540 ng·h/mL
same,t1/2,"[7]; p.o., 10 mg/kg",90 min
same,Cmax,"[7]; p.o., single 10 mg/kg (free drug dose)",3.44 µg/mL
same,BA (absolute oral),"[7]; dogs, 10 mg/kg p.o. vs i.v.",58%
same,time of peak plasma concentration,"[7]; dogs, i.v., 10 mg/kg, first collection time point",five minutes
same,Tmax,"[7]; dogs, plasma, p.o., 10 mg/kg",16.8 min
same,Cl,"[7]; male dogs, i.v.",21 mL/min/kg
same,Vss,"[7]; male dogs, i.v.",1.2 L/kg
same,AUC/dose,"[7]; male dogs, i.v., plasma",0.783 µg·kg·h/mL/mg
same,AUC/dose,"[7]; male dogs, p.o., plasma",0.454 µg·kg·h/mL/mg
same,Learned helplessness: escape failures in the last 10 trials,"[8]; 50 mg/kg i.p., 24 h after treatment",reduced
same,Learned helplessness: total number of escape failures,"[8]; 50 mg/kg i.p., tested 24 h after treatment, p<0.01",reduced the total number of escape failures
same,Learned helplessness: escape failures in the last 10 trials,"[8]; 50 and 150 mg/kg p.o., 24 h after treatment",robust reduction in the number of escape failures; also recorded: effective at reversing helplessness
same,Learned helplessness: total number of escape failures,"[8]; 50 and 150 mg/kg p.o., 24 h after treatment, p<0.05",robust reduction in the number of escape failures; also recorded: effective at reversing helplessness
